Consider one compound from patent US7053052B2, “Therapies involving mutated heat shock transcription factor” (priority 1997, dated 2006).

This data set relates to HepG2 cells. Description: Mortality from exposure to cyclophosphamide (LDH release, mortality). To be noted: 20 mM, 24 hour exposure. For orientation: LDH in the medium is a marker of cell lysis.

In the case of `O=P1(N(CCCl)CCCl)NCCCO1` (stereo not shown) [cyclophosphamide, reference compound], the “mortality caused by cyclophosphamide” value turned out to be 38%.
